Experimental findings from ChEMBL document CHEMBL1770049, “Synthesis of novel mast cell-stabilising and anti-allergic 1,2,3,4-tetrahydro-1-naphthalenols and related compounds” (Eur J Med Chem, 2011) are described below.

pIC50: −log10 of the molar value. The source made the active and inactive calls. The calls are words filed in the database; no cut-off is given here.

The term pIC50 denotes −log10 of the IC50, conventionally taken in molar units. What is called inhibition in vivo is the change of the read-out against control, counted positive when it falls. As a reminder, the inhibition is the relative decrease from the control value, in per cent. In general, logP refers to the decadic logarithm of the partition coefficient of the neutral form, usually between octanol and water.

A short description of data set [1]: Antiallergic activity in rat Peritoneal mast cell assessed as inhibition of compound 48/80-induced histamine release. The format is functional, cell-based.
The subject of another data set is Mus musculus. The experiment in a line: Antiinflammatory activity in Laca mouse assessed as inhibition of arachidonic acid induced ear oedema at 300 ug/ear. The format is functional, organism-based.
Another data set deals with Rattus norvegicus. The data set can be described thus: Antiallergic activity in sensitized rat assessed as inhibition of ovalbumin-induced passive cutaneous anaphylaxis at 3 mg/kg, iv after 30 mins relative to control. The format is functional. Conditions: 0.5 h.
Data set [2] in a line: Antiallergic activity in rat Peritoneal mast cell assessed as inhibition of compound 48/80-induced histamine release at 20 uM. The format is functional.
The nature of data set [3]: Antiallergic activity in rat Peritoneal mast cell assessed as inhibition of Con A-induced histamine release. The format is functional, cell-based.
Data set [4] can be described thus: Antiallergic activity in rat Peritoneal mast cell assessed as inhibition of ionophore A23187-induced histamine release. The format is functional, cell-based.
The nature of data set [5]: Lipophilicity, log P of the compound. The format is physicochemical. As to conditions: octanol/water.

As to `CC(Cc1ccccc1)(C1=Cc2ccccc2CC1)C(O)c1ccccc1` (stereo not given), in data set [1], the pIC50 is 5.48. In addition, in the data set on Mus musculus, the result was inactive.

Turning to `O=C1c2ccccc2CCC1C1=Cc2ccccc2CC1` (stereo not given), the pIC50 in data set [1] is 5.10.

Take `Cc1ccc(CC2(/C=C/c3ccccc3)CCc3ccccc3C2O)cc1` (stereo not given): in data set [1], the pIC50 is 5.03.

For the compound `O=C(O)c1cc(=O)c2c(OCC(O)COc3cccc4oc(C(=O)O)cc(=O)c34)cccc2o1` [CROMOLYN SODIUM], the inhibition in vivo at 3 mg/kg with Rattus norvegicus was found to be 87%. In addition, in data set [2], the inhibition at 20 µM came out at 10%.

Take `CC(Cc1ccccc1)(C1=Cc2ccccc2C1)C(O)c1ccccc1` (stereo not given): in the data set on Mus musculus, the outcome was inactive. Further, the inhibition at 20 µM in data set [2] is 82%.

Regarding `OC1c2ccccc2CC1(Cc1ccccc1)C1=Cc2ccccc2CC1` (stereo not given), the results for the pIC50 in data set [1], in data set [3] and in data set [4] were 5.11, 5.44 and 5.33, respectively. The inhibition in vivo at 3 mg/kg with Rattus norvegicus worked out at 2%. The outcome in the data set on Mus musculus was inactive. The compound also returned a logP in data set [5] of 6.3.

As to `OC1c2ccccc2CCC1(/C=C/c1ccccc1)Cc1ccccc1` (stereo not given), in data set [1], the pIC50 is 4.26. The inhibition in vivo at 3 mg/kg in the data set with Rattus norvegicus stood at 44%. Further, the outcome in the data set on Mus musculus was inactive. The logP in data set [5] was found to be 6.58.

For the compound `CC(/C=C/c1ccccc1)(Cc1ccccc1)C(O)c1ccccc1` (stereo not given), the pIC50 in data set [1] was 4.15.

Take `OC1c2ccccc2CCC1(Cc1ccccc1)C1=Cc2ccccc2C1` (stereo not given): the pIC50 is 5.39 in data set [1], 6.12 in data set [3] and 5.00 in data set [4]. For the same compound, the inhibition in vivo at 3 mg/kg in the data set with Rattus norvegicus was -5%. For the same compound, the outcome with Mus musculus was Active. The compound further had a logP in data set [5] of 6.3.
